Experimental data reported in ChEMBL document CHEMBL1157480, “Petrosamine, a potent anticholinesterase pyridoacridine alkaloid from a Thai marine sponge Petrosia n. sp” (Bioorg Med Chem, 2008).
pIC50: −log10 of the molar value.

Biological target: Acetylcholinesterase (Torpedo californica, UniProt P04058)
Assay: Inhibition of Torpedo californica AchE activity by Ellman's assay
Parameters: species or system Tetronarce californica

Acetylcholinesterase, sequence (P04058 whole entry): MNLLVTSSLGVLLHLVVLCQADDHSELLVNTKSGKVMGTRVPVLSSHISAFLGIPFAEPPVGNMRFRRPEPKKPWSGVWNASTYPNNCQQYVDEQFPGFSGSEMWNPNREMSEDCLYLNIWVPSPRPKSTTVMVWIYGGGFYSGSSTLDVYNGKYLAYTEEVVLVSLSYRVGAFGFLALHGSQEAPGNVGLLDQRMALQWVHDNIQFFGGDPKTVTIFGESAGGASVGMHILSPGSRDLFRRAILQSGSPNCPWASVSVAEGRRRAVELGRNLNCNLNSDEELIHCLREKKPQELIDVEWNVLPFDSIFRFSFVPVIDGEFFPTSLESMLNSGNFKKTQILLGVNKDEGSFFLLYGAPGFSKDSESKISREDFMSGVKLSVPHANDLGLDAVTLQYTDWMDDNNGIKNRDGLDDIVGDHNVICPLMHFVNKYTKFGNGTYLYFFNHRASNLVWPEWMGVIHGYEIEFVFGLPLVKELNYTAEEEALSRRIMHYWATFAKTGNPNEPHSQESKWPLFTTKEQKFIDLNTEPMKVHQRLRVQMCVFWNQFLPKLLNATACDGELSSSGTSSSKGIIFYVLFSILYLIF

Row | Structure (SMILES) | pIC50
1 | Cn1cc2c(cc1=O)-c1nc3cc(Br)ccc3c3ccnc(c13)C2=O | < 3.52
2 | Cn1ccc2c3nc4cc(Br)ccc4c4c3c(c(=O)c-2c1)[N+](C)(C)CC4=O [PETROSAMINE] | 7.04
